What was measured:
[1] = tested on: Aβ peptide fibrils; details: stated as previously shown; cited from earlier work
[2] = molecular target: T1, A53T mutant of α-synuclein (Homo sapiens, UniProt P37840, A53T); assay: Negative stain electron microscopy of α-synuclein fibre formation; type: biochemical
T1 construct: made in house; host or cells: E. coli
Protocol: (§1) α-Synuclein will be purified from E. coli expressing the native and the aggregation prone A53T mutant proteins via chromatography on a Q-sepharose column.[10, 12] Recombinant α-synuclein spontaneously aggregates into fibers upon incubation at high concentrations 2 mg/ml. To assay the α-synuclein aggregation the proteins will then be incubated at 37° C. (50 mM Tris, pH 7.5) with shaking in the presence and absence of the inositols in varying ratios from 1:1 to 1:100 protein:inositol. The products of these incubations will be evaluated with the biophysical techniques discussed below. Negative stain electron microscopy is an excellent tool to examine the gross morphology of the protein aggregates formed. Samples will be examined as a function of time and scyllo-inositol concentrations.

[3] = molecular target: T2, α-synuclein (Homo sapiens, UniProt P37840, A53T); assay: Thioflavin T binding assay of α-synuclein aggregation; type: biochemical; details: α-synuclein 2 mg/ml, 24 hrs at 37° C., scyllo-inositol 1:20 ratio by weight
T2 construct: made in house; host or cells: E. coli
Protocol: as §1, with “below.” for “below. Negative stain electron microscopy is an excellent tool to examine the gross morphology of the protein aggregates formed. Samples will be examined as a function of time and scyllo-inositol concentrations.”
Fluorimetry. Fluorescent probes are exceptionally useful to follow the aggregation kinetics of proteins. Two fluorescent probes, Thioflavin T (ThT) and 1-Anilinonaphthalene-8-sulfonic acid (ANS) are the most commonly used probes for α-synuclein. […] Thus, the amyloid fibrils formed from the proteins used in these studies bind ThT and binding is monitored by an increase in fluorescence intensity. Oligomers other than the amyloid fibrils can also have significant β-sheet character and bind ThT. ANS binds to hydrophobic unstructured proteins and is complementary to ThT fluorescence assays. Upon binding in a hydrophobic environment ANS undergoes an increase in quantum yield and a blue shift in its fluorescence emission maximum.

SMILES: O[C@H]1[C@H](O)[C@@H](O)[C@H](O)[C@@H](O)[C@@H]1O [scyllo-inositol]
- disaggregation of preformed Aβ peptide fibrils [1]: able to disaggregate preformed Aβ peptide fibrils
- aggregates produced (negative stain EM, FIG. 1) ([2]; A53T mutant, after 24 hours of incubation at 37° C., without compound: characteristic α-synuclein fibrils): a few thin fibrils with the majority of the visible protein being present as amorphous aggregates
- α-synuclein fibres formed (negative stain electron microscopy, FIG. 1 legend) ([2]; α-synuclein 2 mg/ml, scyllo-inositol 1:20 ratio by weight, 2 days at 37° C., alone: long mature fibres): only small aggregates could be detected
- Thioflavin T fluorescence (FIG. 2) [3]: fluorescence increases upon short incubations with scyllo-inositol and the fluorescence decreases with time

Reference: US20100331267A1, “USE OF CYCLOHEXANEHEXOL DERIVATIVES IN THE TREATMENT OF ALPHA-SYNUCLEINOPATHIES” (priority 2007, published 2010)
